Assay results: patent US20040248953A1, “3-Arylsulfanyl and 3-heteroarylsulfanyl substituted benzo[b]thiophenes as therapeutic agents” (priority 2003, published 2004)

target: T1, PI3Kγ (Homo sapiens, UniProt P48736); experiment: PI3Kγ in vitro kinase assay (32P-ATP, PIP2 lipid micelles, filter plate); assay type: biochemical; settings: purified recombinant p101/p110γ protein with G protein β1/γ2 subunits; 20 μM ATP; 25 μM PIP2; 20 minutes at room temperature
T1 construct: HA; made in house; host or cells: Spodoptera frugiperda (Sf9) cells, baculovirus coinfection
T1 sequence (P48736 whole entry, species assumed): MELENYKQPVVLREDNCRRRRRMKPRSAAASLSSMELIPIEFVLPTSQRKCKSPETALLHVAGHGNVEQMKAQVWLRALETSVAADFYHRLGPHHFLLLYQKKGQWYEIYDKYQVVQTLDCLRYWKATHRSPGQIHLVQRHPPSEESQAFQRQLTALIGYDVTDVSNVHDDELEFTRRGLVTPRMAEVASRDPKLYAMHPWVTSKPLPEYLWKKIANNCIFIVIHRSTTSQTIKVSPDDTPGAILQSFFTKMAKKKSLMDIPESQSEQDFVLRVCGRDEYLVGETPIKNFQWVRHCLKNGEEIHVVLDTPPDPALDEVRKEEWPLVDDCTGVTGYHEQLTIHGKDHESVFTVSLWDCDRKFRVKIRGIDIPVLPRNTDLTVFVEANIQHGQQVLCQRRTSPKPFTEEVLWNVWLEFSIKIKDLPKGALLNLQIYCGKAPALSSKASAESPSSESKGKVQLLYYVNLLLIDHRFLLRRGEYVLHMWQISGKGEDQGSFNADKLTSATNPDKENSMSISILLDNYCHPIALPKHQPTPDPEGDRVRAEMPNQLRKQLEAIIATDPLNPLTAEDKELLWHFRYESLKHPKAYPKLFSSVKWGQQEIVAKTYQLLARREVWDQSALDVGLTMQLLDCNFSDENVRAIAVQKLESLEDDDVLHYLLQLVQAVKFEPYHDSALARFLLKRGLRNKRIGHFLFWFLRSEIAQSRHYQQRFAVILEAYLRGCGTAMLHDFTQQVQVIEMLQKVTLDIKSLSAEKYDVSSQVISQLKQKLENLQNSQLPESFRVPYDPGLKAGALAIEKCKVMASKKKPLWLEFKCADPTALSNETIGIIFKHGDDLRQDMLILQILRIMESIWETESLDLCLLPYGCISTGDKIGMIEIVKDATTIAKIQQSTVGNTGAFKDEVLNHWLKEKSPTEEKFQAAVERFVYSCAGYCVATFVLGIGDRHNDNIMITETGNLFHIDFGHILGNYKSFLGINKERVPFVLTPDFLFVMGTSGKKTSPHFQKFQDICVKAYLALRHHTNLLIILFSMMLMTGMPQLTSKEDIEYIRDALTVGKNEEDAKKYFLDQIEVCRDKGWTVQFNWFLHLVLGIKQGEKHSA
T1 sequence (Q8WYR1 whole entry partner, species assumed): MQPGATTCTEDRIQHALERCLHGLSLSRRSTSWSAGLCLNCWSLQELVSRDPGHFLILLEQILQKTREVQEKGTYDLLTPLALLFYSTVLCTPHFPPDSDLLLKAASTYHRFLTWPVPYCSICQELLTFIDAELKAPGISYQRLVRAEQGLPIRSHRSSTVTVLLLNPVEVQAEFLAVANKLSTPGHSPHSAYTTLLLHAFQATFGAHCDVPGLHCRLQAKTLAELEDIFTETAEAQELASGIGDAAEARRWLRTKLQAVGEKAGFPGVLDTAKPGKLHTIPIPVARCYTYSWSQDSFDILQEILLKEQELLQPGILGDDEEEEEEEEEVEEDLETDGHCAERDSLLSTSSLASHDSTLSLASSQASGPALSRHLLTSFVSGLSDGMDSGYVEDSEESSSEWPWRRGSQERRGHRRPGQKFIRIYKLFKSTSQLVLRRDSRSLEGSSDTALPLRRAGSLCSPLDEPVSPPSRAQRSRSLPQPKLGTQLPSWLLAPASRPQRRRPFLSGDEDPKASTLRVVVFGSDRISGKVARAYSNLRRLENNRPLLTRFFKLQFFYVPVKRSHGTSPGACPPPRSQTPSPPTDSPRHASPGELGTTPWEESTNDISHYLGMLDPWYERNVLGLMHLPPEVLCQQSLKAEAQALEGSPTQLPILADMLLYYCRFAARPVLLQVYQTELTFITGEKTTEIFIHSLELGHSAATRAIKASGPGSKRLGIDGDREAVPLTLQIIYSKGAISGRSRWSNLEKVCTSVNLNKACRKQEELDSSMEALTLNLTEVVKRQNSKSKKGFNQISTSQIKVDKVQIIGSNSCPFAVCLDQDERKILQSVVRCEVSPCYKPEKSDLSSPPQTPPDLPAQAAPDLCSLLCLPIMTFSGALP
Method: Spodtera frugiperda cells, grown in ESF921 media, were coinfected with baculovirus expressing a glu-tagged p101 and baculovirus expressing an HA-tagged p110γ, at a 3:1 ratio of p101 baculovirus to p110γ baculovirus. Sf9 cells were grown to 1×10^7 total cells/mL in 10 L bioreactors and harvested 48-72 hours post infection. Samples of infected cells were then tested for expression of p101/p110γ PI3 kinase by immunoprecipitation and Western Blot analysis methods (see below). To purify PI3Kγ, 4 volumes of room temperature hypotonic lysis buffer (1 mM MgCl2, 1 mM DTT, 5 mM EGTA, 1 mM Pefabloc, 0.5 μM aprotinin, 5 μM leupeptin, 2 μM pepstatin, 5 μM E64, pH 8) per gram of cell paste, was poured onto frozen cell pellets with stirring, then lysed in a nitrogen “bomb” at 400 psi (599HC […], Parr Instrument Co, Moline, Ill.). NaCl was added to 150 mM, and sodium cholate was added to 1% and mixed for another 45 minutes. The lysates were clarified by centrifugation for 25 minutes at 14,000 rpm. The lysates were then loaded over anti-glu-linked Protein-G Sepaharose beads (Covance Research Products, Richmond, Calif.) using 20 mL resin/50 g cell paste. The column was washed with 15 volumes of wash buffer (1 mM DTT, 0.2 mM EGTA, 1 mM Pefabloc, 0.5 μM aprotinin, 5 μM leupeptin, 2 μM pepstatin, 5 μM E64, 150 mM NaCl, 1% sodium cholate, pH 8). PI3Kγ was eluted with 6 column volumes of wash buffer that contain 100 μg/mL of a peptide that competes for binding of the glu tag. The column fractions with the eluted protein (determined by taking OD280 readings) were collected and dialyzed in 0.2 mM EGTA, 1 mM DTT, 1 mM Pefabloc, 5 μM leupeptin, 0.5% sodium cholate, 150 mM NaCl, and 50% glycerol, pH 8. The fractions were stored at -80° C. until further use. Spodtera frugiperda cells were coinfected with baculovirus expressing a glu-tagged G protein β1 and baculovirus expressing a […], at a 1:1 ratio of glu-tagged G protein β1 baculovirus to G protein β2 baculovirus. Sf9 cells are grown in 10 L bioreactors and harvested 48-72 hours post infection. Samples of infected cells were tested for G protein β1/β2 expression by Western Blot analysis, as described below. Cell lysates were homogenized and loaded onto a column of glu-tagged beads as in Biological Example 1 and competed off the column with a glu peptide and processed as described in Biological Example 1. The inhibitory properties of the compounds in Table 1 were assayed in an in vitro PI3K assay. In a 96-well polypropylene plate, each well was spotted with […] of 50 times the desired final concentration of compound in DMSO. Purified recombinant p101/p110γ protein (0.03 μg; 2.7 nM) and G protein β1/γ2 subunits (0.09 μg; 57.7 nM) for each reaction was combined in the assay buffer (30 mM HEPES, 100 mM NaCl, 1 mM EGTA, and 1 mM DTT). ATP and [γ-^32P-ATP] (0.09 μCi) were added to this mixture so that the final ATP concentration in the reaction was 20 μM. Lipid micelles were formed by sonicating phosphatidylinositol4,5-diphosphate (PIP2), phosphatidylethanolamine (PE), and Na-cholate in the assay buffer for 10 minutes, adding MgCl2 and incubating on ice for 20 minutes, for final concentrations of 25 μM PIP2, 300 μM PE, 0.02% Na-cholate, and 10 mM MgCl2 in the reaction. The reactions were started by adding equal volumes lipid and enzyme mixture in a total volume of 50 μL, allowed to run for 20 minutes at room temperature, and stopped with 100 μL 75 mM H3PO4. The lipid product was transferred to a glass fiber filter plate and washed with 75 mM H3PO4 several times. The presence of radioactive lipid product (PIP3) was measured by adding Wallac Optiphase mix to each well and counting in a Wallac 1450 Trilux plate reader (PerkinElmer Life Sciences Inc., Boston, Mass. 02118). The IC50 for each compound tested is reported in μM in Table 1: […]

Structure (SMILES) | IC50
COc1ccc2sc(C(=O)Nc3nnn[nH]3)c(Sc3ccc4c(c3)OCO4)c2c1 [Example 27, 3-(benzo[1,3]dioxol-5-ylsulfanyl)-5-methoxy-benzo[b]thiophene-2-carboxylic acid(1H-tetrazol-5-yl)-amide] | 1.69 µM
COc1cc2sc(C(=O)Nc3nnn[nH]3)c(Sc3ccc(O)cc3)c2cc1OC [Example 28, 3-(4-hydroxy-phenylsulfanyl)-5,6-dimethoxy-benzo[b]thiophene-2-carboxylic acid(1H-tetrazol-5-yl)-amide] | 1.84 µM
COc1cc2sc(C(=O)Nc3nnn[nH]3)c(Sc3ccoc3C)c2cc1OC [Example 29, 5,6-dimethoxy-3-(2-methyl-furan-3-ylsulfanyl)-benzo[b]thiophene-2-carboxylic acid(1H-tetrazol-5-yl)-amide] | 2.16 µM
COC(=O)Cc1ccc(Sc2c(C(=O)Nc3nnn[nH]3)sc3cc(C)c(OC)cc23)cc1 [Example 31, {4-[5-Methoxy-6-methyl-2-(1H-tetrazol-5-ylcarbamoyl)-benzo[b]thiophen-3-ylsulfanyl]-phenyl}-acetic acid methyl ester] | 3.96 µM
COC(=O)CCc1ccc(Sc2c(C(=O)Nc3nnn[nH]3)sc3cc(C)c(OC)cc23)cc1 [Example 32, 3-{4-[5-Methoxy-6-methyl-2-(1H-tetrazol-5-ylcarbamoyl)-benzo[b]thiophen-3-ylsulfanyl]-phenyl}-propionic acid methyl ester] | 4.53 µM
COc1cc2sc(C(=O)Nc3nnn[nH]3)c(Sc3cccc(O)c3)c2cc1OC [Example 36, 3-(3-Hydroxy-phenylsulfanyl)-5,6-dimethoxy-benzo[b]thiophenes-2-carboxylic acid(1H-tetrazol-5-yl)-amide] | 1.88 µM
COc1ccc(Sc2c(C(=O)Nc3nnn[nH]3)sc3cc(C)c(OC)cc23)cc1 [Example 37, 5-Methoxy-3-(4-methoxy-phenylsulfanyl)-6-methyl-benzo[b]thiophene-2-carboxylic acid(1H-tetrazol-5-yl)-amide] | 0.808 µM
COc1cc2sc(C(=O)Nc3nnn[nH]3)c(Sc3ccc(O)cc3)c2cc1C [Example 38, 3-(4-Hydroxy-phenylsulfanyl)-6-methoxy-5-methyl-benzo[b]thiophene-2-carboxylic acid(1H-tetrazol-5-yl)-amide] | 0.885 µM
COc1cc2sc(C(=O)Nc3nnn[nH]3)c(Sc3cccc(O)c3)c2cc1C [Example 39, 3-(3-Hydroxy-phenylsulfanyl)-6-methoxy-5-methyl-benzo[b]thiophene-2-carboxylic acid(1H-tetrazol-5-yl)-amide] | 0.98 µM
COC(=O)Cc1ccc(Sc2c(C(=O)Nc3nnn[nH]3)sc3cc(OC)c(C)cc23)cc1 [Example 40, {4-[6-Methoxy-5-methyl-2-(1H-tetrazol-5-ylcarbamoyl)-benzo[b]thiophen-3-ylsulfanyl]-phenyl}-acetic acid methyl ester] | 1.26 µM
COC(=O)CCc1ccc(Sc2c(C(=O)Nc3nnn[nH]3)sc3cc(OC)c(C)cc23)cc1 [Example 41, 3-{4-[6-Methoxy-5-methyl-2-(1H-tetrazol-5-ylcarbamoyl)-benzo[b]thiophen-3-ylsulfanyl]-phenyl}-propionic acid methyl ester] | 4.08 µM
COc1cc2sc(C(=O)Nc3nnn[nH]3)c(Sc3cccc(C(F)(F)F)c3)c2cc1C [Example 42, 6-Methoxy-5-methyl-3-(3-trifluoromethyl-phenylsulfanyl)-benzo[b]thiophene-2-carboxylic acid(1H-tetrazol-5-yl)-amide] | 2.17 µM
COc1cc2sc(C(=O)Nc3nnn[nH]3)c(SC(c3ccccc3)C(C)N(C)C(C)=O)c2cc1C (centres unmarked) [Example 44, 3-[2-(Acetyl-methyl-amino)-1-phenyl-propylsulfanyl]-6-methoxy-5-methyl-benzo[b]thiophene-2-carboxylic acid(1H-tetrazol-5-yl)-amide] | 2.78 µM
COc1cc2sc(C(=O)Nc3nnn[nH]3)c(Sc3ccc(C(C)C)cc3)c2cc1C [Example 47, 3-(4-Isopropyl-phenylsulfanyl)-6-methoxy-5-methyl-benzo[b]thiophene-2-carboxylic acid(1H-tetrazol-5-yl)-amide] | 3.13 µM
COC(=O)Cc1ccc(Sc2c(C(=O)Nc3nnn[nH]3)sc3cc(OC)c(OC)cc23)cc1 [Example 49, {4-[5,6-Dimethoxy-2-(1H-tetrazol-5-ylcarbamoyl)-benzo[b]thiophen-3-ylsulfanyl]-phenyl}-acetic acid methyl ester] | 1.29 µM
COc1cc2sc(C(=O)Nc3nnn[nH]3)c(Sc3cccc(C(F)(F)F)c3)c2cc1OC [Example 50, 5,6-Dimethoxy-3-(3-trifluoromethyl-phenylsulfanyl)-benzo[b]thiophene-2-carboxylic acid(1H-tetrazol-5-yl)-amide] | 3.38 µM

Now those with a lower IC50, led by results:

IC50 | Structure (SMILES)
0.625 µM | COc1cc2c(Sc3ccc(O)cc3)c(C(=O)Nc3nnn[nH]3)sc2cc1C [Example 30, 3-(4-Hydroxy-phenylsulfanyl)-5-methoxy-6-methyl-benzo[b]thiophene-2-carboxylic acid(1H-tetrazol-5-yl)-amide]
0.207 µM | COc1cccc(Sc2c(C(=O)Nc3nnn[nH]3)sc3cc(C)c(OC)cc23)c1 [Example 34, 5-Methoxy-3-(3-methoxy-phenylsulfanyl)-6-methyl-benzo[b]thiophene-2-carboxylic acid(1H-tetrazol-5-yl)-amide]
0.37 µM | COc1cc2c(Sc3ccc(C(C)C)cc3)c(C(=O)Nc3nnn[nH]3)sc2cc1C [Example 35, 3-(4-Isopropyl-phenylsulfanyl)-5-methoxy-6-methyl-benzo[b]thiophene-2-carboxylic acid(1H-tetrazol-5-yl)-amide]
0.465 µM | COc1cc2sc(C(=O)Nc3nnn[nH]3)c(Sc3cccc(Cl)c3)c2cc1C [Example 45, 3-(3-Chloro-phenylsulfanyl)-6-methoxy-5-methyl-benzo[b]thiophene-2-carboxylic acid(1H-tetrazol-5-yl)-amide]
0.6 µM | COc1cccc(Sc2c(C(=O)Nc3nnn[nH]3)sc3cc(OC)c(C)cc23)c1 [Example 46, 6-Methoxy-3-(3-methoxy-phenylsulfanyl)-5-methyl-benzo[b]thiophene-2-carboxylic acid(1H-tetrazol-5-yl)-amide]
0.438 µM | COc1cccc(Sc2c(C(=O)Nc3nnn[nH]3)sc3cc(OC)c(OC)cc23)c1 [Example 51, 5,6-Dimethoxy-3-(3-methoxy-phenylsulfanyl)-benzo[b]thiophene-2-carboxylic acid(1H-tetrazol-5-yl)-amide]
0.39 µM | COc1cc2c(Sc3ccc(N(C)C)cc3)c(C(=O)Nc3nnn[nH]3)sc2cc1C [Example 53, 3-(4-Dimethylamino-phenylsulfanyl)-5-methoxy-6-methyl-benzo[b]thiophene-2-carboxylic acid(1H-tetrazol-5-yl)-amide]
0.05 µM | COc1cc2c(SCCc3ccccc3)c(C(=O)Nc3nnn[nH]3)sc2cc1C [Example 54]
0.265 µM | COc1cc2c(Sc3ccc(C(=O)O)cc3)c(C(=O)Nc3nnn[nH]3)sc2cc1C [Example 55, 4-[5-Methoxy-6-methyl-2-(1H-tetrazol-5-ylcarbamoyl)-benzo[b]thiophen-3-ylsulfanyl]-benzoic acid]
0.115 µM | COc1cc2c(Sc3ccc(CC(=O)O)cc3)c(C(=O)Nc3nnn[nH]3)sc2cc1C [Example 56, {4-[5-Methoxy-6-methyl-2-(1H-tetrazol-5-ylcarbamoyl)-benzo[b]thiophen-3-ylsulfanyl]-phenyl}-acetic acid]
